Measurements taken from PubChem BioAssay (NCI).
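96-well plates; 48 h exposure; 5 concentrations. Endpoints by linear interpolation between flanking doses. Not reached: highest tested concentration assigned. GI50 = concentration required for 50% inhibition of growth. TGI is the concentration that stops growth completely.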

Key:
Test in all cases: inhibition of tumour cell growth, NCI panel, 48 h
[1] = tested on: ACHN renal
[2] = tested on: CCRF-CEM leukemia
[3] = tested on: DU-145 prostate
[4] = tested on: EKVX NSCLC
[5] = tested on: HOP-62 NSCLC
[6] = tested on: HOP-92 NSCLC
[7] = tested on: M14 melanoma
[8] = tested on: OVCAR-8 ovarian
[9] = tested on: PC-3 prostate
[10] = tested on: SF-268 CNS

Compound	TGI [1] [µM]	TGI [2] [µM]	TGI [3] [µM]	TGI [4] [µM]	TGI [5] [µM]	TGI [6] [µM]	TGI [7] [µM]	TGI [8] [µM]	TGI [9] [µM]	TGI [10] [µM]	GI50 [1] [µM]	GI50 [2] [µM]	GI50 [3] [µM]	GI50 [4] [µM]	GI50 [5] [µM]	GI50 [6] [µM]	GI50 [7] [µM]	GI50 [8] [µM]	GI50 [9] [µM]	GI50 [10] [µM]
Cc1ccc2c(c1C)C(=O)/C(=C/c1cccc(C)c1C(=O)O)C2	> 100	> 100	> 100	> 100	> 100	> 91	> 100	> 100	> 100	> 100	–	–	–	–	–	–	–	–	–	–
CC(=O)c1sc2[n+](c1C)C(=O)/C(=C\c1ccccc1Cl)S2	36	91	33.6	80.7	47.7	> 100	40	77.5	49.9	64.5	–	–	–	–	–	–	–	–	–	–
COC(=O)C(NC(=O)OC(C)(C)C)P(=O)(OC)OC (configuration not stated)	> 100	–	> 100	> 100	> 100	> 100	> 100	> 100	> 100	> 100	–	–	–	–	–	–	–	–	–	–
CN(C)CCCNC(=O)c1cn2c(ccc3sc4ccccc4c(=O)c32)n1	25.8	> 20.1	25	31.6	28	24.7	28.1	10.1	9.43	9.96	–	–	–	–	–	–	–	–	–	–
Cc1cc(=O)oc2c(CNC(CC(C)C)C(=O)O)c(O)ccc12 (configuration not stated)	> 100	–	> 100	> 100	> 100	> 100	> 100	> 100	> 100	> 100	–	–	–	–	–	–	–	–	–	–
COc1cc2c3c(cc(Cl)nc3c1OC)C(O)(CC(=O)c1ccccc1)C(=O)N2 (configuration not stated)	28.3	12.5	30.1	10.4	36	3.66	30.5	32.1	29.2	13.7	–	–	–	–	–	–	–	–	–	–
CC(C)=NOC(=O)Nc1cccc2c1OCO2	> 100	–	> 100	> 100	> 100	> 100	> 100	> 100	> 100	> 100	–	–	–	–	–	–	–	–	–	–
COc1cc(/C=N/NC2=NCCN2)ccc1O	> 100	> 100	> 100	> 100	> 100	> 100	> 100	> 100	> 100	> 100	–	–	–	–	–	–	–	–	–	–
COc1ccc(C2=NC(c3ccc(Cl)cc3)C(c3ccc(Cl)cc3)N2C(=O)N2CCNC(=O)C2)c(OC(C)C)c1 (configuration not stated)	3.33	> 10	3.54	4.18	3.38	4.06	3.31	6.14	4.79	3.97	1.89	3.85	1.8	2.08	1.9	2.1	1.84	2.46	2.26	2.11
